{"source": "patent US9561201B2", "about": "“Therapeutic compounds” (Fibrotech Therapeutics Pty Ltd, priority 2006, dated 2017)", "key": {"cardiac fibroblasts": {"tested_on": "cardiac fibroblasts", "conditions": "experimental model of diabetic cardiac disease [15]; cited from earlier work"}, "[1]": {"test": "Pilot study (toxicity assessment), 2 weeks oral gavage", "assay_type": "in vivo, Sprague-Dawley (SD) rats", "conditions": "2 weeks", "method": "A total of twenty male Sprague-Dawley (SD) rats weighing 200-250 g were randomised to either FT011 (Fibrotech Therapeutics Pty Ltd, Melbourne, Australia) or Tranilast (Pharm Chemical, Shanghai Lansheng Corporation, China) at the dose of 50 mg, 100 mg, 200 mg and 400 mg/kg/day by gavage twice daily (n=2-3 per group). A control group of animals were gavaged with vehicle (1% carboxy methyl cellulose). The study was conducted for 2 weeks. Animals were bled daily at one, four, and eight hours after oral gavage to measure the plasma concentration. Serum was also collected to assess renal and liver function at the end of the study (plasma creatine and urate, ALT and bilirubin). Rats were individually housed in metabolic cages at the end of the study, habituated for 2 to 3 hours, and urine collected over 24 hours. Animals continued to have free access to tap water and standard laboratory chow during this period. The biochemistry tests performed at the department of pathology, St Vincent's hospital. Major organs including lung, heart, liver, spleen and kidney were harvested and immersed fix with 10% neutral buffered formalin and then embedded paraffin for subsequent light microscope examination."}, "[2]": {"tested_on": "mesangial cell line (1097)", "test": "TGF-β induced 3H-proline incorporation in cultured rat mesangial cells (Example 2)", "assay_type": "cell-based, Sprague-Dawley rats", "conditions": "renal mesangial cells, from 30 to 100 μM", "method": "The anti-fibrotic effects of 3-methoxy-4-propargyloxybenzaldehyde (FT011) in a renal cell line were tested by measuring proline incorporation after transforming growth factor-β stimulation.\nA well-characterized cloned mesangial cell line (1097) isolated from Sprague-Dawley rats was used between passages 30 and 40. Cells were cultured in Dulbecco's Modified Eagle's (DME) medium (Invitrogen, Grand Island, N.Y.) with heat-inactivated fetal bovine serum (FBS), 100 u/mL penicillin and 100 ug/mL streptomycin in a humidified 5% CO2 atmosphere at 37° C.\nTo compare the effects of tranilast and FT011 on collagen production in vitro, incorporation of tritiated proline was used. Mesangial cells were plated at low density into 24-well culture plates in DME/5% FBS and allowed to adhere overnight. The subconfluent cells were starved overnight in DME/0.5% FBS and […] L-ascorbic acid (Sigma-Aldrich). Tranilast or FT011 was then added to the wells, followed 4 hours later by L-[2,3,4,5-^3H]-proline, 0.5 μCi/well (Amersham) and TGF-β1, 5 ng/ml (R & D systems). Mesangial cells were harvested 48 hours post-stimulation, washed three times with ice cold PBS, and incubated with 10% trichloroacetic acid (TCA) for 30 minutes on ice, followed by a wash in ice cold 10% TCA. Cells were then solubilised in […] 1M NaOH. […]"}, "[3]": {"conditions": "patients with Gilbert's syndrome UGT1A1 variant [19]; cited from earlier work"}}}
{"smiles": "COc1ccc(/C=C/C(=O)Nc2ccccc2C(=O)O)cc1OC", "note": "[Analogue 1, (E)-2-[[3-(3,4-Dimethoxyphenyl)-1-oxo-2-propenyl]amino]benzoic acid, reference compound]", "values": [{"measurement": "TGF-β-induced collagen synthesis in cardiac fibroblasts", "setting": "cardiac fibroblasts", "result": "attenuate"}, {"measurement": "ALT", "setting": "[1]; 50 mg/kg/day gavage", "result": "40.5 ± 4.5"}, {"measurement": "Body weight", "setting": "[1]; 50 mg/kg/day gavage", "result": "315 ± 19", "unit": "Gram"}, {"measurement": "Plasma Creatinine", "setting": "[1]; 50 mg/kg/day gavage", "result": "43 ± 0.5", "unit": "µmol/L"}, {"measurement": "Plasma Urate", "setting": "[1]; 50 mg/kg/day gavage", "result": "<0.09", "unit": "mmol/L"}, {"measurement": "ALT", "setting": "[1]; 100 mg/kg/day gavage", "result": "41 ± 1"}, {"measurement": "Body weight", "setting": "[1]; 100 mg/kg/day gavage", "result": "298 ± 21", "unit": "Gram"}, {"measurement": "Plasma Creatinine", "setting": "[1]; 100 mg/kg/day gavage", "result": "43 ± 3.5", "unit": "µmol/L"}, {"measurement": "Plasma Urate", "setting": "[1]; 100 mg/kg/day gavage", "result": "<0.09", "unit": "mmol/L"}, {"measurement": "ALT", "setting": "[1]; 200 mg/kg/day gavage", "result": "41 ± 4.6"}, {"measurement": "Body weight", "setting": "[1]; 200 mg/kg/day gavage", "result": "293 ± 10", "unit": "Gram"}, {"measurement": "Plasma Creatinine", "setting": "[1]; 200 mg/kg/day gavage", "result": "45 ± 1", "unit": "µmol/L"}, {"measurement": "Plasma Urate", "setting": "[1]; 200 mg/kg/day gavage", "result": "<0.09", "unit": "mmol/L"}, {"measurement": "ALT", "setting": "[1]; 400 mg/kg/day gavage", "result": "40 ± 5"}, {"measurement": "Body weight", "setting": "[1]; 400 mg/kg/day gavage", "result": "314 ± 13", "unit": "Gram"}, {"measurement": "Plasma Creatinine", "setting": "[1]; 400 mg/kg/day gavage", "result": "49 ± 7.8", "unit": "µmol/L"}, {"measurement": "Plasma Urate", "setting": "[1]; 400 mg/kg/day gavage", "result": "<0.09", "unit": "mmol/L"}, {"measurement": "proline incorporation after TGF-β stimulation", "setting": "[2]", "result": "significantly reduce"}, {"measurement": "drug-induced adverse effect", "setting": "[3]", "result": "hyperbilirubinemia"}]}
